# “Also recorded” adds a separate entry of the source.
# Columns and labels:
# [1] = logD7.4 by micro shake flask method (n-octanol / MOPS buffer pH 7.4, LC-MS); format: physicochemical; conditions: read-out: logD7.4 ± SD (Micro Shake Flask)
# Protocol: The logD7.4 values were recorded using the micro shake flask method. In this method, the test compound is distributed between n-octanol and MOPS buffer pH 7.4, and the amount of the compound in the buffer layer is determined by mass spectrometry.
# The new fluorescent dyes were designed to increase the polarity and reduce the non-specific labeling of lipophilic membranes of cells. Moreover, a higher polarity should lead to increased water solubility and thus improved handling of the dyes. The logD7.4 value was recorded as a measure of the polarity/lipophilicity using our recently published micro-shake flask method. According to this method, the amount of compound in the aqueous 3-morpholinopropanesulfonic acid (MOPS) buffer pH 7.4 was determined by LC-MS [31, 32].
# [2] = target: T1, KCa3.1 channel in A549-3R cells (Homo sapiens, UniProt O15554); assay: Whole-cell patch clamp on A549-3R cells after channel opening with 1-EBIO; format: cell-based
# T1 construct: the non-small cell lung cancer cell line A549-3R with a high expression of the KCa3.1 channel was employed; endogenous in cells; host or cells: A549-3R cells
# Protocol: Bath solution: 140 mM NaCl, 5 mM KCl, 10 mM HEPES, 1 mM MgCl2 and 1 mM CaCl2 in an aqueous solution; pH = 7.4 with NaOH.
# Pipette solution: 140 mM KCl, 10 mM HEPES, 1.3 mM EGTA, 1 mM MgCl2 and 1.217 mM CaCl2 in an aqueous solution; pH = 7.4 with NaOH; free Ca^2+ concentration of 1 µM.
# 1-EBIO solution: 100 mM stock solution of 1-ethylbenzimidazolone (1-EBIO) in DMSO was diluted with the bath solution to 50 µM.
# Test solution: A 10 mM stock solution of imaging compound 10b in DMSO was diluted with the bath solution to 1 µM.
# Senicapoc solution: 10 mM stock solution of senicapoc (3) in DMSO was diluted with bath solution to 1 µM.
# Whole-cell patch clamp experiments were conducted at room temperature using borosilicate glass pipettes (GC150TF-10, Harvard Ltd., Boston, MA, USA) connected to an EPC-10 amplifier (HEKA Electronics, Lambrecht, Germany). […] Current density was calculated by dividing the current amplitude determined at the end of the depolarization voltage ramp to +60 mV by the membrane capacitance obtained from the slow capacitance compensation. The calculated free Ca^2+ concentration of the pipette solution was 1 µmol/L to obtain full activation of the KCa channels during the patch clamp experiments. […] A multi-barreled application pipette with a tip diameter of ~100 µm was used for test solution applications close to the recorded cell. […]
smiles,measurement,setting,value
"CCC1=C(C)C2=C(c3ccc(OCCOCCn4cc(COc5ccc(C(C(N)=O)(c6ccccc6)c6ccc(F)cc6)cc5)nn4)cc3)c3c(C)c(CC)c(C)n3[B-](F)(OC)[N+]2=C1C (stereo not drawn) [10b, 2-{4-[(1-{2-[4-(2,6-Diethyl-4-fluoro-4-methoxy-1,3,5,7-tetramethyl-4-bora-3a,4a-diaza-s-indacen-8-yl)phenoxy]ethoxyethyl}-1,2,3-triazol-4-yl)methoxy]phenyl}-2-(4-flluorophenyl)-2-phenylacetamide]",logD,[1],> 5
same,inhibitory activity compared with senicapoc,"[2]; 1 µM each, channel opened with 1-EBIO",only slightly lower than the inhibitory activity of senicapoc
same,inhibition of the KCa3.1 ion channel current,"[2]; 1 µM, channel opened with 50 µM 1-EBIO, whole A549-3R cells",inhibited the ion channel considerably; also recorded: inhibited the ion current

# — paper PMC11859423, “Fluorescent Probes to Image the KCa3.1 Channel in Tumor Cells” (Pharmaceutics, 2025)
